According to patent US4875922A, “Pyrimidine derivatives” (Imperial Chemical Industries PLC, priority 1986, dated 1989):
Read-outs that look alike come from different tables or passages of the source.

How the values were obtained:
Barley = assay: Whole plant screen for plant growth regulator activity, barley (BR); format: in vivo, Barley (Atem); conditions: BR, 4000 ppm (4 kg/ha), visual score after 2-6 weeks
Procedure: (§1) Compounds 1 to 3 in Table 1 were tested for plant growth regulator activity against five species for various growth effects relevant to plant growth regulation.
(§2) The plant species used in this screen are presented in Table II with the leaf stage at which they were sprayed. Each chemical was applied at 4000 ppm (4 kg/ha in a 1000 l/ha field volume) using a tracksprayer and a SS8004E (Teejet) nozzle.
(§3) After spray the plants were grown in a glasshouse with 25° C. day/22° C. night temperatures and supplementary lighting was supplied when necessary (from mercury vapour lamps), to provide a 16 hour photoperiod. The exception to this were the temperate cereals, wheat and barley which were grown in 16° C. day/13° C. night temperatures.
(§4) After 2-6 weeks in the glasshouse, depending on the time of year, the plants were visually assessed for morphological characteristics. Formulation blanks were used as controls to assess the plants.
(§5) Additional compounds in Table I were tested for plant growth regulator activity using the method of Example 60 except that Tomato was included in the test as an additional species. Tomato, Ailsa Craig, was grown in a single 3 inch pot in peat and treated at the 2 to 21/2 leaves growth stage. The results were presented in Table IV in which Tomato is indicated by the code TO and the Key is otherwise as for Table III.

Tomato = assay: Whole plant screen for plant growth regulator activity, tomato (TO); format: in vivo, Tomato (Ailsa Craig); conditions: 4000 ppm (4 kg/ha), visual score after 2-6 weeks
Procedure: as §2, §3, §4, §5
An astrisk (*) after a score under "T" (tillering) indicated a decrease in tillering.

Spring Barley = assay: Intermediate Retardant Test, spring barley; format: in vivo, Spring Barley (Atem/kym); conditions: Hordeum vulgare, 672 h, read-out: Percentage Reduction in Height of Spring Barley (Compared to formulation blank)
Excerpt: (§6) Three species are involved in this test RICE, SPRING-BARLEY and APPLES. The variety and growth stages at spray are outlined in Table V. Compounds were applied at 500 ppm and 2000 ppm respectively (0.5 kg and 2 kg/ha^-1 at a field volume of 1000 l/ha^-1) as an overall spray except in the case of certain tests on APPLES. This gives a foliar and root component in the test, i.e., this test will detect the activity of both root and foliar acting compounds. The intermediate retardant test on APPLES of which the results are given in Table IX was different, in that a foliar (only) spray at 2000 ppm was compared with a root drench, also at 2000 ppm. The rice was grown in 4" `paddy` pots, i.e., the roots and bottom of the stems are immersed in water under conditions corresponding to those in paddy fields. Spring barley and apples were grown in 4" pots. The plants were assessed for height to top-most ligule at approximately 28 days after treatment for spring barley and rice and for height to apex at approximately 28 days after the treatment for apples. In each case the result for the 500 ppm and 2000 ppm test for each compound is compared to the height of the formulation blank in that test, presented as a percentage reduction in height compared to the formulation blank.
(§7) The prior art compound was compared with compounds of the present invention in side-by-side comparisons using the Intermediate Retardant Test described in Example 62, and the results are given in Tables X to XII where `A` is the prior art compound, 2-methyl-1-isopropyl-1-(pyrimidin-5-yl)-propan-1-ol).

Rice [1] = assay: Whole plant screen for plant growth regulator activity, rice (RC); format: in vivo, Rice (Ishikari); conditions: 4000 ppm (4 kg/ha), visual score after 2-6 weeks
Procedure: as §1, §2, §3, §4, §5

Apples = assay: Intermediate Retardant Test, apples, foliar spray compared with root drench; format: in vivo, Apples (Red Delicious); conditions: 672 h, read-out: Percentage Reduction in Height of Apples (Compared to formulation blank); for percent reduction in plant height at 2000 µg/mL: soil, 2000 pmm (Root), root drench
Excerpt: as §6, §7

Wheat = assay: Whole plant screen for plant growth regulator activity, wheat (WW); format: in vivo, Wheat (Timmo); conditions: WW, 4000 ppm (4 kg/ha), visual score after 2-6 weeks; for T = Tillering or side shooting: * = decrease in tillering
Procedure: as §1, §2, §3, §4, §5

Rice [2] = assay: Intermediate Retardant Test, rice; format: in vivo, Rice (Ishikari); conditions: Oryza sativa, 672 h, read-out: Percentage Reduction in Height of Rice (Compared to formulation blank)
Excerpt: as §6, §7

[3] = overall spray, approximately 28 days, Table VII
[4] = 2000 ppm (Foliar), approximately 28 days, Table IX
[5] = approximately 28 days, Table IX
[6] = overall spray, approximately 28 days, Table VI
[7] = side-by-side comparison with prior art compound, Table XI
[8] = 2000 ppm (Foliar), side-by-side comparison with prior art compound, Table XII
[9] = 2000 ppm (Root), side-by-side comparison with prior art compound, Table XII
[10] = side-by-side comparison with prior art compound, Table X

| Compound | I = Interligular or internodal length reduction (Barley) | R = Retardation (Barley) | G = Greening effect (Tomato) | I = Interligular or internodal length reduction (Tomato) | R = Retardation (Tomato) | percent reduction in plant height at 500 ppm (Spring Barley; [3]) [%] | percent reduction in plant height at 2000 ppm (Spring Barley; [3]) [%] | percent reduction in plant height at 2000 ppm (Apples; [4]) [%] | percent reduction in plant height at 2000 µg/mL (Apples; [5]) [%] | G = Greening effect (Wheat) | I = Interligular or internodal length reduction (Wheat) | R = Retardation (Wheat) | T = Tillering or side shooting (Wheat) | Percent reduction in rice height vs formulation blank at 500 ppm (Rice [2]; [6]) [%] | Percent reduction in rice height vs formulation blank at 2000 ppm (Rice [2]; [6]) [%] | percent reduction in plant height at 500 ppm (Spring Barley; [7]) [%] | percent reduction in plant height at 2000 ppm (Spring Barley; [7]) [%] | percent reduction in plant height at 2000 ppm (Apples; [8]) [%] | percent reduction in plant height at 2000 ppm (Apples; [9]) [%] | Percent reduction in rice height vs formulation blank at 500 ppm (Rice [2]; [10]) [%] | further results |
| --- | --- | --- | --- | --- | --- | --- | --- | --- | --- | --- | --- | --- | --- | --- | --- | --- | --- | --- | --- | --- | --- |
| CCC(C)C#CC(O)(c1cncnc1)C(C)C (centres unmarked) [Compound 5, 2-Methyl-1-(3-methylpent-1-yne)-1-(pyrimidin-5-yl)-propan-1-ol] | 3 (61-100%) | 3 (61-100%) | 2 (31-60%) | 2 (31-60%) | 2 (31-60%) | 38 | 72 | 25.6 | 76.1 | 2 (31-60%) | 3 (61-100%) | 3 (61-100%) | 1 (10-30%) | 39 | 68 |  |  |  |  |  | G = Greening effect (Barley): 1 (10-30%); T = Tillering or side shooting (Barley; * = decrease in tillering): 3 (61-100%); I = Interligular or internodal length reduction (Rice [1]): 2 (31-60%); R = Retardation (Rice [1]): 2 (31-60%); T = Tillering or side shooting (Rice [1]; * = decrease in tillering): 1 (10-30%) |
| CC(C)C(O)(c1cncnc1)C(C)C [A, 2-methyl-1-isopropyl-1-(pyrimidin-5-yl)-propan-1-ol, reference compound] |  |  |  |  |  |  |  |  |  |  |  |  |  |  |  | 0 | 0 | 0 | 23.5 | 2 | Percent reduction in rice height vs formulation blank at 2000 ppm (Rice [2]; [10]): 0% |
| CCC(C)CC#CC(O)(c1cncnc1)C(C)C (centres unmarked) [Compound 11, 2-Methyl-1-(4-methylhex-1-yne)-1-(pyrimidin-5-yl)propan-1-ol] |  |  |  |  |  | 5 | 47 | 6 | 55 |  |  |  |  | 4 | 14 |  |  |  |  |  |  |
| CCCCCC(O)(c1cncnc1)C(C)(C)C (centres unmarked) [Compound 15, 2,2-Dimethyl-1-(pentyl)-1-(pyrimidin-5-yl)-propan-1-ol] | 2 (31-60%) | 2 (31-60%) | 2 (31-60%) | 2 (31-60%) | 2 (31-60%) | 14 | 33 | 44.2 | 71.1 | 1 (10-30%) | 3 (61-100%) | 2 (31-60%) | 1 (10-30%) | 13 | 39 |  |  |  |  |  |  |
| CC(C)CC#CC(O)(c1cncnc1)C(C)C (centres unmarked) [Compound 4, 2-methyl-1-(4-methylpent-1-yne)-1-(pyrimidin-5-yl)-propan-1-ol] |  |  |  |  |  |  |  |  |  |  |  |  |  |  |  | 53 | 64 | 46.8 | 64.6 | 45 | Percent reduction in rice height vs formulation blank at 2000 ppm (Rice [2]; [10]): 66% |
